Read-outs that look alike come from different tables or passages of the source.
Biological target: T1, hmGluR1 receptor (Homo sapiens, UniProt Q13255)
T1 construct: expressed in transfected cells; host or cells: CHO
Assay: IC50 determination: intracellular calcium mobilization (FLIPR) upon Quisqualate stimulation in CHO cell line stably expressing hmGluR1
Assay type: cell-based
Conditions: CHO cells expressing hmGluR1, against Quisqualate 1 μM (EC80), compounds added 10 minutes before Quisqualate
Description: A CHO cell line stably expressing hmGluR1 receptor was established. One day prior to assay, cells were split in growth media at concentration of 50,000 cells/well in a volume of 100 μl and seeded into black clear-bottom 96-well plates. After two to six hours, when cells were well attached to the plate, growth medium was replaced with assay medium (100 μL) consisting of DMEM high glucose, supplemented with GPT (1 U/mL) and sodium pyruvate, 1 mM. Following overnight incubation, medium was discarded and cells were loaded for 2 hours with dye from the Calcium 3 Assay Reagent Kit (Molecular Devices, # R8033), prepared according to manufacturers' instructions. A 96-tip pipettor/fluorometric imaging plate reader (FLIPR 384; Molecular Devices) was used and intracellular calcium mobilization was measured by increases in fluorescence upon agonist Quisqualate stimulation following 6 sec-baseline measurement. Test compounds were added 10 minutes before Quisqualate. IC50 determinations for tested compounds were generated against Quisqualate 1 μM corresponding to EC80 value in a standard dose response curve.

T1 sequence (Q13255 19-1194): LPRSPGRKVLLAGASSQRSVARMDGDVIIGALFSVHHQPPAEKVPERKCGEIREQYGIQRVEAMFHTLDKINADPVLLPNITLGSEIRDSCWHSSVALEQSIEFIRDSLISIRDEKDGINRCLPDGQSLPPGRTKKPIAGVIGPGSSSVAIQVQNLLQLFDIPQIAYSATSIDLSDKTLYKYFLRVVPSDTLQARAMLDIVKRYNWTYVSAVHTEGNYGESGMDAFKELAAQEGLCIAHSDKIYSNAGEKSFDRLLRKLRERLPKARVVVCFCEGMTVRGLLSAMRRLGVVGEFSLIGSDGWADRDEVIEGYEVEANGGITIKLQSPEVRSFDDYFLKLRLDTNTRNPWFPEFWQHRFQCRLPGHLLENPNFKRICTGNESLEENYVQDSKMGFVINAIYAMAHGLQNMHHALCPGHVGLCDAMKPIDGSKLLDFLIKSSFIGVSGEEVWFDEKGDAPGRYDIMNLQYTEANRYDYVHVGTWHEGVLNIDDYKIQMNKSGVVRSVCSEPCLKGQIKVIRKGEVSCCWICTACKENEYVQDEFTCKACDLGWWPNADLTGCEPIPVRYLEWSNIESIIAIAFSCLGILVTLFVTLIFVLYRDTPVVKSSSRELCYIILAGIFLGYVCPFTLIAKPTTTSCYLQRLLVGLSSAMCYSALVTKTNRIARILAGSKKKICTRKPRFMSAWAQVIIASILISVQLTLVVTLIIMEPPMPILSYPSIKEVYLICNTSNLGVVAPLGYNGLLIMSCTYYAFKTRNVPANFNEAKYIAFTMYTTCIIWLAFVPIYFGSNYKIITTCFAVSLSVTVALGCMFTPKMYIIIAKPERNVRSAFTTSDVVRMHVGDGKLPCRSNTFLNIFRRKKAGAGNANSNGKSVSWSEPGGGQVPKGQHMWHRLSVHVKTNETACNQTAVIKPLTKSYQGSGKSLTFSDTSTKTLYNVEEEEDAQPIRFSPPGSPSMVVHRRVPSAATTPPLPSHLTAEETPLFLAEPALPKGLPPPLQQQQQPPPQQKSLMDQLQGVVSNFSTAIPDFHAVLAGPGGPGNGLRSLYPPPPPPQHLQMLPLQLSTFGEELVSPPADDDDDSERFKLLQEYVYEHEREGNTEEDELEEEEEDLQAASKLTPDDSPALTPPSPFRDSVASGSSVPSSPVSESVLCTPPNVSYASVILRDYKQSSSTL

Structure (SMILES) | IC50 (read-out: mGluR1 IC50) [nM] | IC50 (read-out: mGluR1 IC50 rating) [nM]
Cc1ccc(-n2ncc3c(sc4nccc(N(C)C)c43)c2=O)cc1 [Compound 9A] | 3.6 | < 20
COc1ccc(-n2ncc3c(sc4nccc(N(C)C)c43)c2=O)cc1 [Compound 9B] | 4.5 | < 20
CN(C)c1ccnc2sc3c(=O)n(-c4ccc(Cl)cc4)ncc3c12 [Compound 9C] | 2.4 | < 20
CN(C)c1ccnc2sc3c(=O)n(-c4ccc(Br)cc4)ncc3c12 [Compound 9D] | 2.9 | < 20
CN(C)c1ccnc2sc3c(=O)n(-c4ccc5scnc5c4)ncc3c12 [Compound 9E] | 4.3 | < 20
CN(C)c1ccnc2sc3c(=O)n(-c4ccc5ncsc5c4)ncc3c12 [Compound 9F] | 7.8 | < 20
CN(C)c1ccnc2sc3c(=O)n(C4CCCCC4)ncc3c12 [Compound 9G] | – | 20 to 100
Cc1n[nH]c(=O)c2sc3nccc(N(C)C)c3c12 [Compound 13A] | – | > 1000
Cc1ccc(-n2nc(C)c3c(sc4nccc(N(C)C)c43)c2=O)cc1 [Compound 13B] | – | > 1000
Cc1nn(C2CCCCC2)c(=O)c2sc3nccc(N(C)C)c3c12 [Compound 13C] | – | > 1000
COc1ccc(-n2nc(C)c3c(sc4nccc(N(C)C)c43)c2=O)cc1 [Compound 13D] | – | > 1000
COc1ccnc2sc3c(=O)n(-c4ccc(Cl)cc4)ncc3c12 [Compound 21A] | – | 20 to 100
COc1ccc(-n2ncc3c(sc4nccc(OC)c43)c2=O)cc1 [Compound 21B] | – | 20 to 100
COc1ccnc2sc3c(=O)n(-c4ccc(C)cc4)ncc3c12 [Compound 21C] | 12.8 | < 20

The remaining lines, values ahead:

IC50 (read-out: mGluR1 IC50) [nM] | IC50 (read-out: mGluR1 IC50 rating) [nM] | Structure (SMILES)
13.7 | < 20 | O=c1c2sc3nccc(NC4CC4)c3c2cnn1-c1ccc(Cl)cc1 [Compound 23A]
– | 100 to 1000 | COc1ccc(-n2ncc3c(sc4nccc(NC5CC5)c43)c2=O)cc1 [Compound 23B]
– | < 20 | CNc1ccnc2sc3c(=O)n(-c4ccc(Cl)cc4)ncc3c12 [Compound 23C]
– | 20 to 100 | O=c1c2sc3nccc(NCCO)c3c2cnn1-c1ccc(Cl)cc1 [Compound 23D]
– | > 1000 | COCCNc1ccnc2sc3c(=O)n(-c4ccc(OC)cc4)ncc3c12 [Compound 23E]
– | 100 to 1000 | COc1ccc(-n2ncc3c(sc4nccc(NCCO)c43)c2=O)cc1 [Compound 23F]
18.5 | < 20 | Cc1ccc(-n2ncc3c(sc4nccc(NC5CC5)c43)c2=O)cc1 [Compound 23G]
– | 100 to 1000 | Cc1ccc(-n2ncc3c(sc4nccc(NCCO)c43)c2=O)cc1 [Compound 23H]
3.6 | < 20 | COc1ccc(-n2ncc3c(sc4nccc(N(C)N)c43)c2=O)cc1 [Compound 23I]
– | 100 to 1000 | O=c1c2sc3nccc(NC4CCC4)c3c2cnn1-c1ccc(Cl)cc1 [Compound 23J]
– | 20 to 100 | CCNc1ccnc2sc3c(=O)n(-c4ccc(Cl)cc4)ncc3c12 [Compound 23K]
– | 100 to 1000 | COc1ccc(-n2ncc3c(sc4nccc(N5CCC5)c43)c2=O)cc1 [Compound 23L]
– | 100 to 1000 | C#CCNc1ccnc2sc3c(=O)n(-c4ccc(OC)cc4)ncc3c12 [Compound 23M]
– | 20 to 100 | CNc1ccnc2sc3c(=O)n(-c4ccc(OC)cc4)ncc3c12 [Compound 23N]
– | 100 to 1000 | CCNc1ccnc2sc3c(=O)n(-c4ccc(OC)cc4)ncc3c12 [Compound 23O]
– | 100 to 1000 | COc1ccc(-n2ncc3c(sc4nccc(N5CC(O)C5)c43)c2=O)cc1 [Compound 23P]
– | 20 to 100 | CNc1ccnc2sc3c(=O)n(-c4ccc(C)cc4)ncc3c12 [Compound 23Q]
18 | < 20 | CCNc1ccnc2sc3c(=O)n(-c4ccc(C)cc4)ncc3c12 [Compound 23R]
– | 20 to 100 | C#CCNc1ccnc2sc3c(=O)n(-c4ccc(C)cc4)ncc3c12 [Compound 23S]
– | 20 to 100 | COc1ncnc2sc3c(=O)n(-c4ccc(Cl)cc4)ncc3c12 [Compound 34A]
– | 100 to 1000 | COc1ccc(-n2ncc3c(sc4ncnc(OC)c43)c2=O)cc1 [Compound 34B]
– | 100 to 1000 | CCNc1ncnc2sc3c(=O)n(-c4ccc(OC)cc4)ncc3c12 [Compound 35A]
– | 20 to 100 | COc1ccc(-n2ncc3c(sc4ncnc(NC5CC5)c43)c2=O)cc1 [Compound 35B]
– | 100 to 1000 | CNc1ncnc2sc3c(=O)n(-c4ccc(OC)cc4)ncc3c12 [Compound 35C]
